Measured values taken from PubChem BioAssay AID1963862 (Molecular Pharmacology Branch, DTP, NCI, 2024).

Tested on: KRAS patient-derived spheroids with HUVEC/MSC, viability
Assay: Anticancer human tumor 941728-121-R-J1-PDC patient-derived lung adenocarcinoma cell line growth inhibition [KRAS2]
Conditions: for IC50: curve of first compound; for viability, T/C: stronger effect = lower value; active = viability on the fitted dose curve at most 10% of control; inactive = the rest
In short: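 Combination screen of spheroid viability in tumor-cell co-cultures with endothelial (HUVEC) and mesenchymal stem cell stroma. Each agent was tested in half-log dilutions, topping at clinical Cmax or at 10 microM without a known Cmax.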

[1] = second compound 0.1 µM, first compound 0.000316 µM
[2] = second compound 0.1 µM, first compound 0.001 µM
[3] = second compound 0.1 µM, first compound 0.00316 µM
[4] = second compound 0.1 µM, first compound 0.01 µM
[5] = second compound 0.1 µM, first compound 0.0316 µM
[6] = second compound 0.316 µM, first compound 0.000316 µM
[7] = second compound 0.316 µM, first compound 0.001 µM
[8] = second compound 0.316 µM, first compound 0.00316 µM
[9] = second compound 0.316 µM, first compound 0.01 µM
[10] = second compound 0.316 µM, first compound 0.0316 µM
[11] = second compound 1 µM, first compound 0.000316 µM
[12] = second compound 1 µM, first compound 0.001 µM
[13] = second compound 1 µM, first compound 0.00316 µM
[14] = second compound 1 µM, first compound 0.01 µM
[15] = second compound 1 µM, first compound 0.0316 µM
[16] = second compound 3.16 µM, first compound 0.000316 µM
[17] = second compound 3.16 µM, first compound 0.001 µM
[18] = second compound 3.16 µM, first compound 0.00316 µM
[19] = second compound 3.16 µM, first compound 0.01 µM
[20] = second compound 3.16 µM, first compound 0.0316 µM
[21] = second compound 10 µM, first compound 0.000316 µM
[22] = second compound 10 µM, first compound 0.001 µM
[23] = second compound 10 µM, first compound 0.00316 µM
[24] = second compound 10 µM, first compound 0.01 µM
[25] = second compound 10 µM, first compound 0.0316 µM
[26] = second compound 0.1 µM, first compound 0.1 µM
[27] = second compound 0.316 µM, first compound 0.1 µM
[28] = second compound 1 µM, first compound 0.1 µM
[29] = second compound 3.16 µM, first compound 0.1 µM
[30] = second compound 10 µM, first compound 0.1 µM
[31] = second compound 0.1 µM, first compound 0.316 µM
[32] = second compound 0.1 µM, first compound 1 µM
[33] = second compound 0.1 µM, first compound 3.16 µM
[34] = second compound 0.1 µM, first compound 10 µM
[35] = second compound 0.316 µM, first compound 0.316 µM
[36] = second compound 0.316 µM, first compound 1 µM
[37] = second compound 0.316 µM, first compound 3.16 µM
[38] = second compound 0.316 µM, first compound 10 µM
[39] = second compound 1 µM, first compound 0.316 µM
[40] = second compound 1 µM, first compound 1 µM
[41] = second compound 1 µM, first compound 3.16 µM
[42] = second compound 1 µM, first compound 10 µM
[43] = second compound 3.16 µM, first compound 0.316 µM
[44] = second compound 3.16 µM, first compound 1 µM
[45] = second compound 3.16 µM, first compound 3.16 µM
[46] = second compound 3.16 µM, first compound 10 µM
[47] = second compound 10 µM, first compound 0.316 µM
[48] = second compound 10 µM, first compound 1 µM
[49] = second compound 10 µM, first compound 3.16 µM
[50] = second compound 10 µM, first compound 10 µM
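Note: spheroids exposed to agents for seven days before readout.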

CC(=O)Nc1cccc(-n2c(=O)n(C3CC3)c(=O)c3c(Nc4ccc(I)cc4F)n(C)c(=O)c(C)c32)c1 + COc1cc2nc(C)nc(NC(C)c3cc(N)cc(C(F)(F)F)c3)c2cc1OC1CCOC1
< 0.1 nM: IC50 (second compound 0.316 µM) | IC50 (second compound 1 µM) | IC50 (second compound 3.16 µM) | IC50 (second compound 10 µM)
0.129 nM: IC50 (second compound 0.1 µM)
active: viability, T/C (second compound 10 µM, first compound 0.0001 µM) 6.11% | viability, T/C [21] 3.95% | viability, T/C [22] 3.66% | viability, T/C [23] 2.67% | viability, T/C [24] 2.71% | viability, T/C [25] 2.71%
inactive: viability, T/C (second compound 0.1 µM, first compound 0.0001 µM) 51.3% | viability, T/C [1] 47.6% | viability, T/C [2] 39.7% | viability, T/C [3] 39.5% | viability, T/C [4] 39.4% | viability, T/C [5] 29.4% | viability, T/C (second compound 0.316 µM, first compound 0.0001 µM) 44.3% | viability, T/C [6] 40.5% | viability, T/C [7] 40% | viability, T/C [8] 35.8% | viability, T/C [9] 36.3% | viability, T/C [10] 29.9% | viability, T/C (second compound 1 µM, first compound 0.0001 µM) 41.1% | viability, T/C [11] 40.8% | viability, T/C [12] 38.1% | viability, T/C [13] 30.6% | viability, T/C [14] 31.1% | viability, T/C [15] 25.7% | viability, T/C (second compound 3.16 µM, first compound 0.0001 µM) 32% | viability, T/C [16] 29% | viability, T/C [17] 24.6% | viability, T/C [18] 18.8% | viability, T/C [19] 21.8% | viability, T/C [20] 17.7%

CC(C)n1nc(-c2ccc3oc(N)nc3c2)c2c(N)ncnc21 + COc1cc2nc(C)nc(NC(C)c3cc(N)cc(C(F)(F)F)c3)c2cc1OC1CCOC1
< 0.316 nM: IC50 (second compound 0.1 µM) | IC50 (second compound 0.316 µM) | IC50 (second compound 1 µM) | IC50 (second compound 3.16 µM) | IC50 (second compound 10 µM)
active: viability, T/C [29] 4.73% | viability, T/C [21] 7.59% | viability, T/C [22] 6.39% | viability, T/C [23] 2.23% | viability, T/C [24] 2.22% | viability, T/C [25] 0.71% | viability, T/C [30] 4.65%
inactive: viability, T/C [1] 41.2% | viability, T/C [2] 47.9% | viability, T/C [3] 40.9% | viability, T/C [4] 33.3% | viability, T/C [5] 31% | viability, T/C [26] 28.3% | viability, T/C [6] 42.4% | viability, T/C [7] 50% | viability, T/C [8] 40.4% | viability, T/C [9] 24.3% | viability, T/C [10] 24.9% | viability, T/C [27] 16.7% | viability, T/C [11] 40.8% | viability, T/C [12] 37% | viability, T/C [13] 26.1% | viability, T/C [14] 19.8% | viability, T/C [15] 19.9% | viability, T/C [28] 12.8% | viability, T/C [16] 31.4% | viability, T/C [17] 31.9% | viability, T/C [18] 18.5% | viability, T/C [19] 15% | viability, T/C [20] 12.6%

COc1cc(Nc2ncc3c(n2)-c2ccc(Cl)cc2C(c2c(F)cccc2OC)=NC3)ccc1C(=O)O + COc1cc2nc(C)nc(NC(C)c3cc(N)cc(C(F)(F)F)c3)c2cc1OC1CCOC1
inactive: viability, T/C [5] 52.4% | viability, T/C [26] 44.5% | viability, T/C [31] 44.1% | viability, T/C [32] 47.7% | viability, T/C [33] 42.1% | viability, T/C [34] 42.1% | viability, T/C [10] 41% | viability, T/C [27] 42.3% | viability, T/C [35] 44.1% | viability, T/C [36] 40.2% | viability, T/C [37] 40.7% | viability, T/C [38] 37.3% | viability, T/C [15] 34.7% | viability, T/C [28] 38% | viability, T/C [39] 36.5% | viability, T/C [40] 38.2% | viability, T/C [41] 33.9% | viability, T/C [42] 31.4% | viability, T/C [20] 34.2% | viability, T/C [29] 32.6% | viability, T/C [43] 36.6% | viability, T/C [44] 30.6% | viability, T/C [45] 23% | viability, T/C [46] 19.7% | viability, T/C [25] 12.4% | viability, T/C [30] 14.3%
active: viability, T/C [47] 7.81% | viability, T/C [48] 4.39% | viability, T/C [49] 6.63% | viability, T/C [50] 3.43%
< 31.6 nM: IC50 (second compound 0.1 µM) | IC50 (second compound 0.316 µM) | IC50 (second compound 1 µM) | IC50 (second compound 3.16 µM) | IC50 (second compound 10 µM)

COc1cc2nccc(Oc3ccc(NC(=O)C4(C(=O)Nc5ccc(F)cc5)CC4)cc3)c2cc1OC + COc1cc2nc(C)nc(NC(C)c3cc(N)cc(C(F)(F)F)c3)c2cc1OC1CCOC1
inactive: viability, T/C [5] 57.4% | viability, T/C [26] 55.2% | viability, T/C [31] 38.9% | viability, T/C [32] 25.9% | viability, T/C [33] 31.4% | viability, T/C [34] 57.4% | viability, T/C [10] 34.7% | viability, T/C [27] 41.7% | viability, T/C [35] 27.6% | viability, T/C [36] 17.3% | viability, T/C [37] 21.7% | viability, T/C [38] 35.6% | viability, T/C [15] 25.5% | viability, T/C [28] 29.6% | viability, T/C [39] 23.3% | viability, T/C [40] 9.41% | viability, T/C [41] 17.2% | viability, T/C [42] 29.5% | viability, T/C [20] 30.9% | viability, T/C [29] 35.1% | viability, T/C [43] 19.7% | viability, T/C [44] 3.69% | viability, T/C [45] 0.11% | viability, T/C [46] 35.2% | viability, T/C [25] 13.3%
< 31.6 nM: IC50 (second compound 0.316 µM) | IC50 (second compound 1 µM) | IC50 (second compound 3.16 µM) | IC50 (second compound 10 µM)
active: viability, T/C [30] 2.98% | viability, T/C [47] 1.83% | viability, T/C [48] 0.25% | viability, T/C [49] 0.13% | viability, T/C [50] 15.1%
144 nM: IC50 (second compound 0.1 µM)
